This is an account of results in patent US20250339443A1, “METHOD FOR TREATING OR PREVENTING CALCIUM RELEASE-ACTIVATED CALCIUM CHANNEL OR DISCOIDIN DOMAIN RECEPTOR 2 RELATED DISORDERS OR CONDITIONS” (LumiSTAR Biotechnology, Inc., priority 2023, published 2025).

Assay [1] deals with T1, DDR2 (Homo sapiens, UniProt Q16832).
T1 construct: expressed in transfected cells; host or cells: HEK293T
T1 sequence (Q16832 22-855): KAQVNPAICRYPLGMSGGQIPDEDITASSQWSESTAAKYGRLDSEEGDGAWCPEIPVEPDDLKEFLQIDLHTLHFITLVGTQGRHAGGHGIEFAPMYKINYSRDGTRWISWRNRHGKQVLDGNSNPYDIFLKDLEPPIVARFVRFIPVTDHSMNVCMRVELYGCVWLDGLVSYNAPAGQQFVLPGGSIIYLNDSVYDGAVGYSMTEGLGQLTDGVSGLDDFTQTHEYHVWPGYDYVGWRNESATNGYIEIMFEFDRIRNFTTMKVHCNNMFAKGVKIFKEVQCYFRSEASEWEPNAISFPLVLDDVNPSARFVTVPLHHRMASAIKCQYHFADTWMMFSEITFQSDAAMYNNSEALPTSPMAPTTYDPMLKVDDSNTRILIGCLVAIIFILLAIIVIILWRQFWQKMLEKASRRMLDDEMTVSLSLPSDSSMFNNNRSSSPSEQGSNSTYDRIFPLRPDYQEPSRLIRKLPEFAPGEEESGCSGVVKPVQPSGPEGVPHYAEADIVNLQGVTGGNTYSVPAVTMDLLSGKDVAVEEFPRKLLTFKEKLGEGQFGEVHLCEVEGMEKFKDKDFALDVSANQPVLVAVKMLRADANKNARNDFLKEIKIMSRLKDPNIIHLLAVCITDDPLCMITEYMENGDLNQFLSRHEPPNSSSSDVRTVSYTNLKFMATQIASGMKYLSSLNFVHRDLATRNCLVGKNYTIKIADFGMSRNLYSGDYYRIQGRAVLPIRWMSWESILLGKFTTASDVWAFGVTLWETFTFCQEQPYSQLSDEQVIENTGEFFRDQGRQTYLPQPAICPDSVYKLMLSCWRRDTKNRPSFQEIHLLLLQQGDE
Briefly: DDR2 activation (anti-phosphotyrosine Western blot) in HEK293T cells overexpressing DDR2, collagen-stimulated. In kind it is cell-based. The conditions noted are these: 10 μM pretreatment 30 minutes, then 50 μg/mL type I collagen 12 hours. How it is done: FIG. 1A, FIG. 1B, FIG. 1C, FIG. 1D, FIG. 1E, FIG. 1F, FIG. 1G, FIG. 1H, FIG. 1I, FIG. 1J, FIG. 1K, FIG. 1L, FIG. 1M, and FIG. 1N show WRG-28 and atovaquone (Av) suppress the activation of DDR2 and calcium release-activated calcium (CRAC) channel. FIG. 1A indicates HEK293T cells were transiently overexpressed with DDR2 and then pretreated with different compounds (10 μM), including WRG-28, Av, donepezil hydrochloride (Dh), terazosin hydrochloride (Th), verapamil and flecainide for 30 minutes. Verapamil and flecainide were used as negative control here. After that, cells were treated with 50 μg/mL type I collagen for 12 hours. Cell lysates were harvested and subjected to Western blot analysis with antibodies against phosphotyrosine antibody (clone 4G10), DDR2, and β-actin. […] CRAC channel activity was evaluated by applying 1 μM thapsigargin (Thap.) in a calcium-free solution to deplete the endoplasmic reticulum calcium store, followed by the reintroduction of 2 mM Ca^2+ in an external solution. […] Further analyses are presented in FIG. 1I and FIG. 1J, where the second peak of each wave and rate of entry were analyzed. […] The Orai1 and Stim1 puncta in HEK293T cells overexpressed with CFP-Orai1/Stim1-mCherry were assessed. […]
Cell lysates were harvested in RIPA buffer (150 mM NaCl, 1 mM EGTA, 50 mM Tris pH 7.4, 10% glycerol, 1% Triton X-100, 1% sodium deoxycholate, 0.1% SDS, and protease inhibitor cocktail) and collected from culture dish with cell scrapers. […] The protein expression levels were assessed by specific primary antibodies, including antibodies against phosphotyrosine (clone 4G10; Millipore), DDR2 (R&D), α-SMA (Sigma), Collagen 1a1 (Boster), E-cadherin (BD Biosciences), SGLT2 (Proteintech), NHE1 (Novus) and β-actin (Clone C4, Millipore), followed by incubating with secondary antibodies conjugated with HRP and detected by ECL kit (Thermo Scientific).
To examine the impact of these compounds on DDR2 activation, HEK293T cells overexpressing DDR2 were pretreated with various compounds. […] The activation of DDR2 was evaluated using an anti-phosphotyrosine antibody. […]
Background: A western blot detects proteins with antibodies after separation by electrophoresis.

The target in assay [2] is CRAC channel (Homo sapiens, UniProt Q96D31). The experiment in a line: CRAC channel activity / SOCE by Fura 2-AM cytosolic Ca2+ imaging in HEK293T cells. Set-up: endogenous in cells; host or cells: HEK293T. In kind it is cell-based. The conditions noted are these: 10 μM, 1 μM thapsigargin then 2 mM Ca2+.
CRAC channel, sequence (Q96D31 whole entry): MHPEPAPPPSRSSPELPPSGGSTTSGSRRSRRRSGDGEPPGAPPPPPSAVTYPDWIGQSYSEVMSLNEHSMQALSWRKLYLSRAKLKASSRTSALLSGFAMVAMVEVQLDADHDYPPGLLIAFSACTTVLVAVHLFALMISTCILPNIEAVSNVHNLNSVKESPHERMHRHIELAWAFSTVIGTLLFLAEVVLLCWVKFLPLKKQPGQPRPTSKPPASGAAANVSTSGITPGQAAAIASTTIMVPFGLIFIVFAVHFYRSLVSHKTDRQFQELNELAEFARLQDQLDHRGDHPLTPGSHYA
Experimental: CRAC channel activity was evaluated by applying 1 μM thapsigargin (Thap.) in a calcium-free solution to deplete the endoplasmic reticulum calcium store, followed by the reintroduction of 2 mM Ca^2+ in an external solution. The concentration of cytosolic calcium ions increases as calcium flows through the CRAC channel, leading to the second peak in cytosolic calcium waves. […] Each bar represents the mean value derived from 47 to 103 cells. […] Each bar represents the mean value derived from 83 to 176 cells. […] Further analyses are presented in FIG. 1I and FIG. 1J, where the second peak of each wave and rate of entry were analyzed. Each bar represents the mean value derived from 72 to 108 cells. […] In all the graphs, each bar represents mean±SEM and *, **, and *** denote p-value <0.05, 0.01, and 0.001, respectively.
Cells were then washed and incubated with the same solution in addition to the supplement of Fura 2-AM for another 15 minutes for fully de-esterification. […] 1 μM thapsigargin was added to induce endoplasmic reticulum (ER) calcium store depletion followed by applying 2 mM calcium solution to assess the activation of calcium release-activated calcium (CRAC) channels. Cells were alternately excited at 340 and 380 nm, and images were acquired every 2 seconds. […] All the images were analyzed by using IGOR Pro software. […]
Assay [3] deals with BLM-induced pulmonary fibrosis. The experiment in a line: Bleomycin-induced lung fibrosis mouse model. The assay is classed as in vivo. The conditions noted are these: 14 days, Nintedanib 60 mg/kg/day, WRG-28 5 mg/kg/day, Av 5 mg/kg/day. From the text:
A Bleomycin (BLM)-induced lung fibrosis mouse model was used, and the timelines of operation and drug delivery are depicted in FIG. 11A. […] The hydroxyproline content, serving as a marker of collagen deposition, was extracted from the right lobe and analyzed; the results are shown in FIG. 11C. FIG. 11D depicts histological analysis derived from the left lobe, quantifying the fibrotic area through staining with Masson's Trichrome and Picrosirius red, respectively.
8-to-10-week-old male WT (C57BL/6) mice received intratracheal instillation of bleomycin (bleocin; Nippon Kayaku) at the dose of 3 mg/kg diluted in PBS or PBS only (sham). To study fibrosis, lung samples were collected on day 21 for further analysis.
Lung function was assessed using the flexi Vent system (Scireq, Montreal, QC, Canada). Mice were tracheostomized and ventilated at a rate of 150 breaths/min, tidal volume of 10 ml/kg, and a positive end-expiratory pressure (PEEP) of 2-3 cmH2O. A deep inflation perturbation was used to estimate the inspiratory capacity (IC). Pressure-Volume loops were generated by constant increasing pressure, followed by regular decreasing pressure. Other lung function parameters like resistance, compliance, and elastance were measured by using SnapShot-150.
Levels of hydroxyproline in lung tissues were measured using the Hydroxyproline Colorimetric Assay kit (BioVision, Milpitas, CA, USA). Briefly, 10 mg of frozen right middle lobes homogenized in 100 μL of hydrochloric acid (HCl, 12 N), and hydrolyzed at 120° C. for 3 h. Then, 10 μL of individual samples were used to quantify the absorbance at 560 nm. Hydroxyproline content was presented in μg per lobe.
Mouse left lungs were fixed overnight in 4% paraformaldehyde (PFA), embedded in paraffin, and sectioned in 5 μm thickness for picrosirius red (Abcam, Cambridge, UK) and Masson's trichrome staining (Sigma Aldrich, MO, USA). Measurement of fibrotic area was quantified using ImageJ software (NIH, http://rsbweb.nih.gov/ij/).
The efficacy of WRG-28 and Av in treating pulmonary fibrosis was examined in vivo using a BLM-induced pulmonary fibrosis mouse model for evaluation. 50 μL of Bleomycin (BLM, 3 mg/kg) or PBS were introduced by intratracheal instillation on day 0 to induce fibrosis or serve as the control group, respectively. This was followed by the administration of various compounds for 14 days (Nintedanib: 60 mg/kg/day, WRG-28:5 mg/kg/day, Av: 5 mg/kg/day). Lung function evaluation was conducted on day 21 (FIG. 11A). Nintedanib, an FDA-approved drug for idiopathic pulmonary fibrosis (IPF) treatment, was used as the positive control. The results of the lung function evaluation are depicted in FIG. 11B. […] The degree of these changes can be reversed through treatment with Nintedanib, WRG-28 or Av. […] Histological analysis was conducted through staining techniques to quantify the fibrotic area.

Assay [4] relates to THP-1 derived macrophages. The experiment in a line: Cytokine secretion in macrophages (ELISA). In kind it is cell-based, human. The settings on record: IFN-γ/LPS induction, culture medium. (In an ELISA, binding on a coated surface is turned into a signal by an enzyme label.)
Assay [5] deals with Jurkat T cells. Briefly: Cytokine secretion in T cells (ELISA). The assay is classed as cell-based, human. The conditions noted are these: PHA/PMA induction, culture medium.

Structures are written as SMILES. Structures can show the parent of a compound that is named as a salt.

On to `COc1cc2c(cc1OC)C(=O)C(CC1CCN(Cc3ccccc3)CC1)C2` (stereo not shown) [Dh, donepezil hydrochloride], for which the “activation of DDR2 (phosphotyrosine)” value in assay [1] was “significantly reduced”. The “second peak and rate of SOCE” value in assay [2] is “did not show significant effects”.
As for `COc1cc2nc(N3CCN(C(=O)C4CCCO4)CC3)nc(N)c2cc1OC` (stereo not shown) [Th, terazosin hydrochloride], the “activation of DDR2 (phosphotyrosine)” value in assay [1] is recorded as “significantly reduced”.
As to `COC(=O)c1ccc2c(c1)NC(=O)/C2=C(\Nc1ccc(N(C)C(=O)CN2CCN(C)CC2)cc1)c1ccccc1` [Nintedanib], the “BLM-induced changes in lung function (capacity, compliance, resistance, elastance)” value in assay [3] (day 21) is given as “reversed”. In addition, in assay [3] (left lobe), the “fibrotic area (Masson's trichrome and Picrosirius Red staining)” value is on record as “effectively reduces”. In assay [3] (right lobe), the “hydroxyproline content (degree of fibrosis)” value is on record as “inhibits the progression of fibrosis”.
In the case of `Cc1cccc(F)c1C(=O)Nc1cnc(-c2cc3c(cc2Cl)OC(F)(F)O3)cn1` [CM-4620], in assay [4], the “secretion of IL-2 in macrophages” value was “significantly reduced”, the “secretion of IL-6 in macrophages” value is listed as “significantly reduced” and the “secretion of TNF-β in macrophages” value is reported as “significantly reduced”. Moreover, the “secretion of IL-2 in T cells” value in assay [5] is “significantly reduced”.
